Reference: a melting point compilation (Tetko et al.; mined from patent text by program, amines drawn as free bases though some values may be those of a salt)

`O=C(c1ccncc1)c1cc(-c2ccccc2)c(N2CCOCC2)s1` showed a melting point of 149 °C.
For `CCCCCCCCCC(=O)Oc1ccc([N+](=O)[O-])cc1OC(=O)CCCCCCCCC`, the melting point was 45 to 47 °C.
Work on `C=C=Cn1c(C)c(C)c2cnnc(OCc3ccccc3)c21` yielded a melting point of 77 to 79 °C.
`N#CCCNC(=O)c1cccc(-c2cc3c(ccn3Cc3ccc(Cl)cc3Cl)cn2)c1` showed a melting point of 199 to 200 °C.
With `COc1ccc(C2=NN(C3CCN(C(C)=O)CC3)C(=O)CC2C)cc1OC` (stereo not drawn) the melting point was 149 to 152 °C.
Work on `FC(F)(F)c1ccc(Oc2cc(Cl)nc(Cl)c2)c(Cl)c1` yielded a melting point of 66 °C.
Work on `CN1CC(Cn2cccn2)CC2c3cccc4[nH]cc(c34)CC21` (stereo not drawn) yielded a melting point of 192 to 194 °C.
With `COC(=O)c1cccc2c(C(F)(F)F)c(OC)ccc12` the melting point was 79 to 80 °C.
`CC(C)(C)CCC(=O)c1ccc2cc(-c3ccc4c(Br)c(OCC(=O)O)ccc4c3)sc2c1` showed a melting point of 246 to 247 °C.
Compound `Cn1c(CCc2cc(C(F)(F)F)cc(C(F)(F)F)c2)c(Cc2c[nH]c3ccccc23)oc1=O` has a melting point of 109 to 110 °C.
In the case of `O=c1c2ccccc2sc2ccc(N3CCOCC3)cc12`, the melting point is reported as 166 to 167 °C.
For `CNCCCn1c2ccc(O)cc2c2c3c(c(-c4ccccc4)cc21)C(=O)NC3=O`, the melting point was 265 to 268 °C.
For `COc1c2c(c(OC)c(OC)c1OC)CCC(CCI)CC2`, the melting point was 75 to 82 °C.
Work on `CC(=O)N[C@@H]1c2cc(C#N)ccc2CC(C)(C)[C@H]1O` (relative stereo) yielded a melting point of 203 to 205 °C.
Compound `Cc1cccc(C)c1CNc1cc(C2=NCCN2C)cc2c1nc(C)n2C` has a melting point of 118 to 119 °C.
With `CC(C)(C)c1cc(CCc2ccccc2NC(=O)NC2CCCc3ccccc32)cc(C(C)(C)C)c1O` (stereo not drawn) the melting point was 168 to 169 °C.
With `Cc1oc(-c2ccc3ccccc3c2)nc1COc1ccc(COc2ncccc2CC(=O)O)cc1` the melting point was 155 to 156 °C.
Work on `O=S(=O)(Nc1ccc2c(OCc3ccc(I)cc3)cccc2c1)C(F)(F)F` yielded a melting point of 120 to 122 °C.
Work on `CSCC(C)(C)NC(=O)c1c(NC(=O)c2cc(C(F)(F)F)nn2-c2ncccc2Cl)c(Cl)cc2cn[nH]c12` yielded a melting point of 100 to 105 °C.
`CCC(=O)C(CCCCCCOc1ccc(OCc2ccccc2)cc1)C(=O)CC` gave a melting point of 82 to 84 °C.
Compound `COc1ccc(C(=O)Nc2ccccc2)cc1NC(=S)Nc1ccc(C(F)(F)F)cc1` has a melting point of 194 to 196 °C.
Compound `Nc1cccc(C#Cc2ccc(OC3CN4CCC3CC4)nn2)c1` (stereo not drawn) has a melting point of 152 to 158 °C.
Work on `Cc1cc(-n2nc(C(F)(F)F)cc2-c2ccc(S(C)(=O)=O)cc2)ccc1Cl` yielded a melting point of 152 to 154 °C.
For `OC1Cn2cccc2Sc2ccccc21` (stereo not drawn), the melting point was 101 to 102 °C.
`Cc1ccc(Sc2ccnc3sccc23)cc1` gave a melting point of 90 to 92 °C.
For `Cc1nc2ccc3c(c2o1)C(=CC#N)CC3`, the melting point was 180 to 182 °C.
Compound `CSc1ncc(N(C)C(=O)C(C)(C)c2cc(C(F)(F)F)cc(C(F)(F)F)c2)c(-c2ccccc2C)n1` has a melting point of 124 to 125 °C.
With `CCCCCCCNC(=O)Nc1ccc(-n2ccnc2)cc1C(=O)NCC1CCN(C(c2ccccc2)c2ccccc2)CC1` the melting point was 183 to 185 °C.
`CC1(C)CC1(N)C(=O)OCC(CO)OCn1cnc2c(=O)[nH]c(N)nc21` (stereo not drawn) gave a melting point of over 300 °C.
Work on `CCOC(=O)c1c2ccc(Cl)cc2c(-c2ccccc2)n1CCCN(CC)C(C)=O` yielded a melting point of 102 to 104 °C.
With `O=C(Cl)c1ccc(C(c2ccc(C(=O)Cl)cc2)(C(F)(F)F)C(F)(F)F)cc1` the melting point was 96 to 97 °C.
With `CS(=O)(=O)c1ccc(-n2nc(C(F)(F)F)nc2-c2ccc(Br)cc2)nn1` the melting point was 174 to 181 °C.
`CCOc1ccc([C@H]2O[C@H](CC(=O)O)C(=O)N(CC(C)(C)C)c3ccc(Cl)cc32)c(OC)c1` (relative stereo) gave a melting point of 230 to 232 °C.
Work on `O=C(CN1C(=O)c2ccccc2C1=O)NCc1nncn1-c1ccc(Cl)cc1C(=O)c1ccccc1` yielded a melting point of 214 to 215 °C.
In the case of `CCOC(=O)C1=C(Cl)/C(=N/OS(C)(=O)=O)CC(c2ccc(Cl)cc2F)N1` (stereo not drawn), the melting point is reported as 63 to 64 °C.
`COC(=O)Cc1cc(C(=O)c2ccc3cc(-c4ccccc4)[nH]c3c2)sc1-c1ccccc1` gave a melting point of 183 to 185 °C.
`COc1cccc2nc(-c3ccc(C)cc3)cc(OCC(=O)N3CCOCC3)c12` showed a melting point of 132 °C.
In the case of `CCS(=O)(=O)c1ccc(F)c([N+](=O)[O-])c1`, the melting point is reported as 128 to 131 °C.
Compound `CN(C)c1ncc(CN2C(=O)C3(COc4cc5c(cc43)OCO5)c3ccccc32)s1` (stereo not drawn) has a melting point of 200 to 202 °C.
In the case of `COc1cc(F)ccc1OCC#Cc1ccc(Cl)nc1`, the melting point is reported as 86 to 87 °C.
In the case of `CCOC(=O)CCc1cc(O)nn1Cc1ccccc1`, the melting point is reported as 128 to 129 °C.
`CCCC(=O)c1cc(-c2ccccc2)no1` gave a melting point of 89 to 90 °C.
`COC(=O)c1ccc(-c2nc(-c3ccc(Cl)cc3)cs2)cc1` gave a melting point of 186 to 187 °C.
Compound `Cc1oc(-c2ccccc2)nc1Cc1cc2cc(CC3OC(=O)NC3=O)ccc2o1` (stereo not drawn) has a melting point of 190 to 191 °C.
With `CC(C)C(NC(=O)Cn1cccc(NC(=O)CCc2ccccc2)c1=O)C(=O)C(F)(F)F` (stereo not drawn) the melting point was 154 to 155 °C.
For `CCCCNC(=O)COc1ccn2nc(-c3ccccc3)c(-c3ccc(=O)n(C(C)C)n3)c2c1`, the melting point was 151 to 152 °C.
In the case of `Cc1nc2c3c(c(C(=O)N4CCC4)cc2n1C)CCC(c1ccccc1)O3` (stereo not drawn), the melting point is reported as 241 to 242 °C.
In the case of `O=Cc1c(Cl)nc2n(c1=O)CCS2`, the melting point is reported as 152 to 154 °C.
In the case of `O=C(CC1(O)CCC1)N[C@H]1CC[C@H](CCN2CCN(c3nccc4c3OCC4)CC2)CC1`, the melting point is reported as 155 °C.
`Clc1cc(-c2c(-c3ccccc3)nn3ccccc23)ccn1` showed a melting point of 167 to 168 °C.
Compound `CC(C)(C#N)c1cc(C(=O)c2cccnc2)cc(C(C)(C)C#N)c1` has a melting point of 87 to 89 °C.
Compound `CC(C)c1nc(C(c2ccccc2)c2ccccc2)cc(-c2ccc(F)cc2)c1CO` has a melting point of 138 to 140 °C.
`COC(=O)C=Cc1ccc2c(c1)OCCO2` showed a melting point of 66 to 68 °C.
`O=C1COCC(=O)NCCOCCN1` gave a melting point of 180 to 181 °C.
Compound `COc1cc(Nc2c(C#N)cnc3cc(-c4ccc(CN5CCN(C)CC5)s4)ccc23)c(Cl)cc1Cl` has a melting point of 206 to 208 °C.
In the case of `COc1ccc(-c2nc3cnc4ccccc4c3n2CC(C)C)cc1OC`, the melting point is reported as 192 to 199 °C.
With `O=C1Nc2ccccc2C12COc1ccc(Br)cc12` (stereo not drawn) the melting point was 225 to 228 °C.
`NS(=O)(=O)c1ccc(-c2cn(-c3nc(-c4ccc(Cl)c(Cl)c4)cc(C(F)(F)F)n3)cn2)cc1` showed a melting point of 334 °C.
Compound `CCCn1cc(Cc2ccc(C(=O)O)cc2OC)c2cc(CC3CCCN(C)C3=O)ccc21` (stereo not drawn) has a melting point of 105 to 115 °C.
For `CCOC(=O)c1nc(-c2ccc(=O)[nH]c2)c(-c2ccccc2)nc1N`, the melting point was 230 to 238 °C.
For `O=C(O)Cc1ccccc1N1CCOCC1`, the melting point was 128 °C.
Work on `O=C1CCC(c2ccccc2)(c2ccccc2)[C@@H]2CN(C(=O)Cc3ccccc3N3CCOCC3)C[C@H]12` (racemic) yielded a melting point of 167 °C.
In the case of `O=[N+]([O-])c1ccc(Cl)c(CN2CCCCC2)c1Cl`, the melting point is reported as 67 to 68 °C.
In the case of `CC(C)C(=O)Nc1ccnc(-c2ccncc2)n1`, the melting point is reported as 215 to 217 °C.
In the case of `N#CC=C(N)c1cccs1`, the melting point is reported as 50 to 54 °C.
In the case of `CCOC(=O)c1ncn2c1[C@@H]1CCN1C(=O)c1sccc1-2`, the melting point is reported as 188 to 191 °C.
For `COC(=O)C1CC(Oc2ccc(N)cc2)CN1C(=O)C1(C)CCc2c(C)c(O)c(C)c(C)c2O1` (stereo not drawn), the melting point was 110 to 112 °C.
Work on `Cc1cc(C)c(C)c(-c2cc3cnc(N)nc3nc2N)c1C` yielded a melting point of 327 to 331 °C.
With `COc1ccc2c(c1)CCC1=C2CCC(O)C1` (stereo not drawn) the melting point was 90 to 92 °C.
In the case of `C=CCC1(C(C)CC(=O)O)C(=O)NC(=O)NC1=O` (stereo not drawn), the melting point is reported as 200 °C.
`CC(C)(C)C(=O)OCc1nc2cc3c(cc2c(=O)[nH]1)CCC3` showed a melting point of 185 to 190 °C.
`CCCc1nc2c(N)nc3ccccc3c2n1CCCCCS(C)(=O)=O` gave a melting point of 179 to 181 °C.
With `CN1CCC(c2c[nH]c3ccc(OS(=O)(=O)c4c(F)cccc4F)cc23)CC1` the melting point was 214 to 215 °C.
`FC1=COC(COCc2ccccc2)C(COCc2ccccc2)O1` (stereo not drawn) showed a melting point of 61.5 to 63 °C.
With `CC1(C)CC(OC(=O)c2ccccc2)CC(C)(C)N1N=Nc1ccccc1` the melting point was 89 to 91 °C.
Work on `CC(C)CNC(=O)CN1CCN(Cc2ccc3c(c2)NC(=O)C(C)O3)CC1` (stereo not drawn) yielded a melting point of 150 °C.
`Cc1cccc(-c2[nH]c(C(C)C)nc2-c2ccc(F)c(-c3ncc[nH]3)c2)n1` showed a melting point of 201 to 205 °C.
With `CC1(C)CC(=O)Nc2cc3nc(O)[nH]c3cc21` the melting point was over 300 °C.
For `CC(=O)NC[C@H]1CN(c2ccc(C3=CCN(c4nnc(C)s4)CC3)c(F)c2)C(=O)O1`, the melting point was 193 to 195 °C.
`CC(C)COC(=O)Nc1ccc(C2=CCS(=O)CC2)c(F)c1` (stereo not drawn) gave a melting point of 212 to 214 °C.
Work on `CCn1cc(C(=O)NC2CCCCC2)c(=O)c2cnc(N3CCCC3)nc21` yielded a melting point of 265 to 267 °C.
For `O=c1cc2c(n[nH]1)-c1ccccc1C2`, the melting point was 295 °C.
With `NC(=O)Cc1ccc2noc(-c3ccc(Cl)cc3)c2c1` the melting point was 242 to 244 °C.
Work on `CC(c1oc2ccccc2c(=O)c1-c1cccc(F)c1)n1nc(-c2ccc(Oc3ccccc3)cc2)c2c(N)ncnc21` (stereo not drawn) yielded a melting point of 218 to 220 °C.
In the case of `Cc1ccc(S(=O)(=O)c2nnnn2C)cc1`, the melting point is reported as 110 to 111 °C.
`COc1ccc(C2=CNC(=O)NC2)cc1OC1Cc2ccccc2C1` gave a melting point of 198 to 201 °C.
With `CCCC(=O)OC1c2ccccc2C(=O)N1c1ccc2ccc(Cl)nc2n1` (stereo not drawn) the melting point was 140 °C.
In the case of `COC(=O)C(=O)c1ccc(OCCOc2ccc(C)cc2)cc1`, the melting point is reported as 105 to 107 °C.
Work on `CCc1cccc(C)c1NC(=O)N=C1NCCN1` yielded a melting point of 185 to 187 °C.
`C=CCSc1nnc(Cl)c2ccccc12` gave a melting point of 76 to 78 °C.
`CCCCCCc1ccc(C=CC(=O)c2ccc(OCC=C(C)C)cc2OCC(=O)OCC)cc1` gave a melting point of 56 to 57 °C.
Compound `O=c1c2cnc(N3CCCCC3)nc2sn1CCc1ccccn1` has a melting point of 109 to 110 °C.
`C=CCCOc1ccc(CCCO)c(Oc2ncc(C(F)(F)F)cc2Cl)c1` showed a melting point of 75.2 to 75.8 °C.
With `C#CCN(c1c(Br)cc(Br)cc1Br)[N+](=O)[O-]` the melting point was 58 to 58.5 °C.
`CCCNC(=O)C(C)Cc1ccc2c(CCC)cn(Cc3ccc(C(=O)O)cc3OC)c2c1` (stereo not drawn) gave a melting point of 90 to 98 °C.
`OC1CCN(c2nnc(-c3ccc(Cl)cc3)c(-c3ccc(Cl)cc3)n2)CC1` showed a melting point of 102 to 105 °C.
With `CC(=O)Nc1cccc(-c2nc3n(n2)CCc2ccccc2-3)c1` the melting point was 225 to 226 °C.
In the case of `CCOC(=O)C(=O)c1ccc(C)[nH]1`, the melting point is reported as 72 to 74 °C.
